Experimental data: the supplement of paper PMC8671470
± gives the standard deviation of the averaged measurements.

Tests used:
Conditions in all cases: 72 h
MV4-11 = assay: cell viability (% survival relative to DMSO control, bortezomib = 0%); higher = less cytotoxic
Method in brief: (§1)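 Percent survival is reported as the mean of duplicate wells. Cells from 10 AML and 5 CML lines were plated in 384-well plates containing compounds at 1, 10, 100, 1000 or 10000 nM and kept for 72 h at 37 °C in 5% CO2. Readout used CellTiter-Glo luminescence, scaled so that vehicle equals 100% and a 10 µM positive control equals 0%.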

K-562 = assay: as above
Method in brief: as §1

NOMO-1 [1] = assay: as above
Method in brief: as §1

KCL-22 [2] = assay: as above
Method in brief: as §1

SHI-1 = assay: as above
Method in brief: as §1

LAMA-84 = assay: as above
Method in brief: as §1

ML-2 [3] = assay: as above
Method in brief: as §1

Mono-Mac-6 = assay: as above
Method in brief: as §1

KG-1 [4] = assay: as above
Method in brief: as §1

BV-173 = assay: as above
Method in brief: as §1

THP-1 = assay: as above
Method in brief: as §1

HEL = assay: as above
Method in brief: as §1

HL-60 [5] = assay: as above
Method in brief: as §1

MOLM-13 = assay: as above
Method in brief: as §1

KU-812 = assay: as above
Method in brief: as §1

NOMO-1 [6] = system: NOMO-1
Method in brief: (§2)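 Seeded in RPMI 1640 at densities within the linear growth range, fifteen myeloid leukaemia cell lines were dispensed into 384-well plates with acoustically pre-printed compounds spanning five tenfold doses from 1 to 10,000 nM, in duplicate. The plates were kept for 72 h at 37 °C in 5% CO2 before luminescent ATP viability was measured and normalised to vehicle and to a positive control at 10 µM. Curves were fitted with a four-parameter log-logistic model. The IC50 was taken from those curves.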

KCL-22 [7] = system: KCL-22
Method in brief: as §2

ML-2 [8] = system: ML-2
Method in brief: as §2

KG-1 [9] = system: KG-1
Method in brief: as §2

HL-60 [10] = system: HL-60
Method in brief: as §2

HL-60 [11] = assay: cell viability (% survival relative to DMSO control); higher = less cytotoxic
Method in brief: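 HL-60 cells grown in RPMI 1640 with 10% FBS were rescreened against the full library in 384-well plates, in duplicate, at five tenfold concentrations from 1 to 10,000 nM, alongside DMSO or 100 nM of one of three metabolic inhibitors for 72 h at 37 °C, 5% CO2. Reference wells contained DMSO or 10 μM proteasome inhibitor. Viability was read with CellTiter-Glo and normalised to these reference wells, and where reported, area under the curve was taken from four-parameter log-logistic fits in drc and PharmacoGx.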

O=C1C(SCCO)=C(SCCO)C(=O)c2ccccc21
cell viability [%]
Conditions | 1 nM | 10 nM | 100 nM | 1000 nM | 10000 nM
BV-173 | 107 | 106 | 98.5 | 0.154 | -0.205
HEL | 110 | 107 | 103 | 69.8 | -0.489
HL-60 [5] | 123 | 115 | 122 | 101 | -0.447
K-562 | 98.9 | 98.8 | 112 | 20.6 | 0.0893
KCL-22 [2] | 112 | 101 | 89.9 | 38.3 | -0.332
KG-1 [4] | 107 | 90.2 | 94.9 | 20.2 | -0.961
KU-812 | 104 | 89.1 | 99.2 | 20.9 | -0.694
LAMA-84 | 105 | 95.6 | 101 | 36.1 | 1.35
ML-2 [3] | 101 | 96.2 | 95.8 | 2.66 | -0.682
MOLM-13 | 104 | 101 | 107 | 5.3 | -0.664
MV4-11 | 96 | 113 | 83.9 | 0.103 | -0.335
Mono-Mac-6 | 111 | 102 | 104 | 30 | -0.648
NOMO-1 [1] | 105 | 99.7 | 100 | 7.84 | -0.348
SHI-1 | 99.5 | 103 | 95.4 | 16.8 | -0.637
THP-1 | 100 | 98.2 | 106 | 10.8 | -1.37

Conditions | IC50 (cell viability) [nM]
HL-60 [10] | 3230
KCL-22 [7] | 664
KG-1 [9] | 507
ML-2 [8] | 307
NOMO-1 [6] | 370

cell viability [%], HL-60 [11]
Conditions | 0.001 µM | 0.01 µM | 0.1 µM | 1 µM | 10 µM
co-treatment: AZD3965 100 nM | 102 ± 2.9 | 105 ± 6.2 | 104 ± 5.2 | 95.3 ± 12 | -0.491 ± 0.62
co-treatment: DMSO vehicle | 101 ± 6.2 | 104.7 ± 0.88 | 99.1 ± 1.8 | 102 ± 4.8 | 7.09 ± 8.5
co-treatment: GSK2194069 100 nM | 99.5 ± 8.8 | 98.79 ± 0.56 | 97.3 ± 9 | 102 ± 4.9 | 1.87 ± 0.7
co-treatment: pictilisib 100 nM | 107.4 ± 0.62 | 104 ± 5.3 | 95.6 ± 9.2 | 75.46 ± 0.6 | -0.39 ± 0.42

N#Cc1ccc(N(Cc2ccc(Br)cc2)n2cnnc2)cc1 [YM511]
cell viability [%]
Conditions | 1 nM | 10 nM | 100 nM | 1000 nM | 10000 nM
BV-173 | 92 | 95.3 | 101 | 107 | 100
HEL | 113 | 104 | 97.7 | 118 | 104
HL-60 [5] | 104 | 76.2 | 102 | 117 | 101
K-562 | 107 | 104 | 97 | 115 | 99.3
KCL-22 [2] | 111 | 97.9 | 106 | 102 | 99.6
KG-1 [4] | 99.3 | 105 | 90.2 | 118 | 92.1
KU-812 | 95.9 | 99.6 | 89.3 | 102 | 92.7
LAMA-84 | 106 | 100 | 93.4 | 101 | 103
ML-2 [3] | 105 | 108 | 106 | 107 | 98.5
MOLM-13 | 131 | 99.5 | 91.6 | 105 | 94.5
MV4-11 | 98.9 | 93.6 | 115 | 106 | 98.9
Mono-Mac-6 | 110 | 102 | 97 | 106 | 93.9
NOMO-1 [1] | 103 | 104 | 98.4 | 104 | 96.2
SHI-1 | 117 | 103 | 95.7 | 103 | 102
THP-1 | 99.3 | 103 | 93.4 | 105 | 91.9

Conditions | IC50 (cell viability) [nM]
HL-60 [10] | > 10000
KCL-22 [7] | > 10000
KG-1 [9] | > 10000
ML-2 [8] | > 10000
NOMO-1 [6] | > 10000

cell viability [%], HL-60 [11]
Conditions | 0.001 µM | 0.01 µM | 0.1 µM | 1 µM | 10 µM
co-treatment: AZD3965 100 nM | 83.2 ± 8.3 | 106 ± 6.3 | 102 ± 2 | 95.3 ± 5.1 | 96.88 ± 0.89
co-treatment: DMSO vehicle | 96.8 ± 4 | 102 ± 4.8 | 101.39 ± 0.056 | 101 ± 2.3 | 104 ± 4.4
co-treatment: GSK2194069 100 nM | 96.8 ± 2 | 81 ± 33 | 105 ± 5.9 | 97.49 ± 0.82 | 102 ± 2.3
co-treatment: pictilisib 100 nM | 88.1 ± 9.3 | 79.9 ± 18 | 99.6 ± 1.7 | 92.9 ± 4.6 | 95.3 ± 5.3
